The values below come from patent US20140080908A1, “COMPOSITIONS AND METHODS FOR IMPROVING OR […]-LIKE SYMPTOMS” (PHYTO TECH CORP., priority 2012, published 2014).

Data set [1] has as its system C57BL/6J mice. The note with it: 30 mg/kg/day orally for 3 months (90 days); compared to calcium gluconate or vehicle; p<0.05; FIG. 2A.
Protocol: (§1) Vehicle (saline) was administered to the third group of mice as a control. The animals were then subject to TST and FST.
The subject of data set [2] is C57BL/6J mice. Conditions: 30 mg/kg/day orally for 3 months (90 days); compared to calcium gluconate or vehicle; p<0.05; FIG. 2B.
Protocol: In an FST, each mouse is placed in a separate acrylic glass cylinder that is filled with water (23-25° C.) to a level high enough to prevent the mouse from touching the bottom of the cylinder with his paws or tail, yet low enough to prevent the mouse from escaping through the top opening of the cylinder. The mice are thus forced to swim in the cylinders. […] FST is the most widely used as a screen for acute antidepressants, and the duration of immobility is the main parameter by which the effectiveness of an antidepressant treatment is measured.
as §1
The subject of a further data set is human bone marrow cells. Conditions: 1, 2.5, 5 and 7 sec time points; every time point tested; FIG. 1.
For data set [3] the following is noted: in vivo; cited from earlier work.

For `O=C(O)[C@H](O)[C@@H](O)CO` (stereo in doubt) [calcium (2R, 3S)-2,3,4-trihydroxybutyric acid], the “duration of immobility in TST” value with C57BL/6J mice [1] is recorded as “significantly decreased duration of immobility”. In the data set on C57BL/6J mice [2], the “duration of immobility in FST” value is recorded as “significantly decreased duration of immobility”. Moreover, in the data set with human bone marrow cells, the “calcium absorption by human bone marrow cells relative to calcium gluconate” value is given as “approximately three times more”. Besides, in data set [3], the “bioavailability compared to calcium gluconate, calcium acetate and calcium carbonate” value is recorded as “higher bioavailability”.
